Laboratory results published in patent publication US20140315975A1, “APOPTOSIS-INDUCING AGENT” (NITTO DENKO CORPORATION, priority 2011, published 2014).

Tests used:
Type in all cases: cell-based
M7609 cells = assay: Apoptosis induction by TUNEL staining
Procedure: A TUNEL method was carried out as follows using an In Situ Cell Death Detection Kit, POD (Roche). GST-π knockdown cells obtained by the procedure of Example 1 (2) were plated on a cover slip placed in a 35 mm plastic tissue culture dish so as to give 1×10^5 cells/2 mL. After the medium was aspirated, 4% paraformaldehyde in PBS was added, and incubation was carried out at room temperature for 60 min., thus fixing the cells. In order to carry out blocking of endogenous peroxidase, incubation was carried out with 3% H2O2 in methanol at room temperature for 10 min. Subsequently, permeabilization of cells was carried out by treating with 0.1% Triton X-100 in 0.1% sodium citrate on ice for 2 min. The TUNEL reaction was carried out in a humidity chamber at 37° C. for 60 min. Detection of TUNEL-positive cells was carried out by a coloration reaction using a DAB substrate after reacting a peroxidase labeled anti-fluorescein antibody at 37° C. for 30 min. Counter staining was carried out using hematoxylin, stained cells were examined under an optical microscope, and TUNEL-positive cells were evaluated as apoptotic cells. Washing between the operations was carried out by rinsing with PBS.

[1] = test system: RAS/Raf/MAPK signal cascade; assay: Western blot of protein involved in RAS/Raf/MAPK signal cascade; settings: M7609 cells
Procedure: A western blot analysis for the main protein involved in the RAS/Raf/MAPK signal cascade was carried out in the same way as for (3) above using cells harvested on the 2nd day after transfection with GST-π siRNA. As antibodies, in addition to anti-GST-π antibody, anti-p-Raf-1 (Ser338) antibody (MILLIPORE), anti-Raf-1 antibody (Santa Cruz), anti-p-MEK1/2 (Ser217/221) antibody (Cell Signaling), anti-MEK1/2 antibody (Cell Signaling), anti-p-ERK1/2 (Thr202/Tyr204) antibody (Cell Signaling), anti-ERK antibody (Cell Signaling), and anti-GAPDH antibody (Abcam) were used.

GST-π = assay: Western blot analysis of GST-π knockdown; settings: M7609 cells
Procedure: On the day before transfection, M7609 cells were plated on a 100 mm plastic tissue culture dish using 10% FBS-containing RPMI-1640 medium containing no antibiotic so as to give 1×10^6 cells/10 mL. 600 pmol of GST-π siRNA (SEQ ID No: 1: […], siRNA ID#2385, Ambion) was added to 1 mL of Opti-MEM I Reduced Serum Medium (GIBCO) and mixed gently. Subsequently, 35 μL of Lipofectamine RNAiMAX (Invitrogen) was diluted in 1 mL of Opti-MEM I Reduced Serum Medium and mixed gently. The diluted GST-π siRNA and the diluted Lipofectamine RNAiMAX were combined and gently mixed, and then incubated at room temperature for 10 min. During this time, the medium was replaced with 10 mL of Opti-MEM I Reduced Serum Medium. After the 10 min. incubation, the complex between GST-π siRNA and Lipofectamine RNAiMAX was added to the cells and incubated at 37° C. under an atmosphere containing 5% CO2. After 5 hours incubation, it was replaced with 10 mL of 10% FBS-containing RPMI-1640 medium containing no antibiotic. […] On the 1st, 2nd, 3rd, and 4th days after transfection with GST-π siRNA, the number of cells was counted, and knockdown of GST-π was examined. Knockdown of GST-π was analyzed by a western blot method as described below.
Western blot analysis of GST-π knockdown was carried out using cells harvested at above-mentioned each point of time after transfection with GST-π siRNA. […] The cell extract thus obtained was subjected to quantitative protein analysis using a Micro BCA Protein Assay Kit (Thermo SCIENTIFIC) (GST-π siRNA transfectant: 4.35 μg/μL, Scramble siRNA transfectant: 4.56 μg/μL). […] A reaction with a chemiluminescent substrate was then carried out at room temperature for 1 min., and then this chemiluminescence was detected using an X-ray film. Washing between operations was carried out three times by shaking for 5 min using PBS-T. Furthermore, after transfection with siRNA, plating on a 60 mm plastic tissue culture dish was carried out to give 1.0×10^5 cells/5 mL, and the total cell count in the dish was measured using a hemocytometer up to the 4th day.

LC3 = assay: Autophagy induction by LC3 western blotting; settings: M7609 cells, western blot with anti-LC3 antibody (FIG. 8)
Procedure: Induction of autophagy in GST-π knockdown cells was further analyzed by a western blot analysis of LC3. GST-π knockdown cells obtained by the procedure of Example 1 (2) were plated on a cover slip placed in a 35 mm plastic tissue culture dish so as to give 1×10^5 cells/2 mL. After incubating for a predetermined time, a cell extract was collected and subjected to a western blot analysis. A reaction with a transfer membrane was carried out at 4° C. for 16 hours using anti-LC3B antibody (SIGMA) as a primary antibody. Detection of LC3 molecules was carried out using a chemoluminescent reagent after a reaction with HRP-labeled secondary antibody. Whether or not autophagy was induced was evaluated by a shift of LC3 from type I (18 kDa) to type II (16 kDa).

Substance: GST-π siRNA: GST-π siRNA (SEQ ID No: 1: GGGAGGCAAGACCUUCAUUTT, siRNA ID#2385, Ambion) (chemistry not given here)
- proportion of apoptosis-positive cells (TUNEL-positive per 1000 cells) (M7609 cells; 1 to 4 days after transfection (FIG. 10)): gradually but continuously increased up to 4th day
- TUNEL-positive cells (apoptosis) (M7609 cells; 3rd to 5th day after transfection, stained images (FIG. 9)): TUNEL-positive cells, that is, apoptosis, was observed
- expression level of Raf protein ([1]; 2nd day after transfection (FIG. 2)): decreases
- phosphorylation of proteins involved in the RAS/Raf/MAPK signal cascade ([1]; 2nd day after transfection, compared with Scramble siRNA (FIG. 2)): decreased
- expression of GST-π (GST-π; 4 days after transfection (FIG. 1b)): still stably suppressed
- expression of GST-π (GST-π; siRNA transfection, western blot (FIG. 1a)): suppressed
- expression of type II LC3 (LC3): markedly increased
